According to the supplement of paper PMC10307832:

How the values were obtained:
Assay in all cases: relative viability (nuclei count vs DMSO), 5 days (fraction); higher = more cells survive
IA-LM = system: IA-LM
Procedure, shortened: (§1)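 After 5 days of treatment, lung cancer cells in 1536-well plates were fixed and stained in a single step (final 0.05% Triton X-100, 1% formaldehyde, 1 ug/ml Hoechst) and their nuclei counted on 4× images. Treatment had been applied by pin tool the day after seeding as one drug alone or as a fixed anchor-drug dose with five library-drug doses (not always all listed) in √10 steps. Relative viability is the nuclei count of treated wells divided by that of vehicle wells, and values are medians of duplicate plates.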

ABC-1 = system: ABC-1
Procedure, shortened: as §1

NCI-H2126 = system: NCI-H2126
Procedure, shortened: as §1

NCI-H1299 = system: NCI-H1299
Procedure, shortened: as §1

NCI-H1703 = system: NCI-H1703
Procedure, shortened: as §1

EKVX = system: EKVX
Procedure, shortened: as §1

NCI-H2085 = system: NCI-H2085
Procedure, shortened: as §1

EBC-1 = system: EBC-1
Procedure, shortened: as §1

Calu-6 = system: Calu-6
Procedure, shortened: as §1

NCI-H1993 = system: NCI-H1993
Procedure, shortened: as §1

RERF-LC-KJ = system: RERF-LC-KJ
Procedure, shortened: as §1

HCC-44 = system: HCC-44
Procedure, shortened: as §1

A549 = system: A549
Procedure, shortened: as §1

COc1cc2nccc(Oc3ccc(NC(=O)Nc4cc(C)on4)c(Cl)c3)c2cc1OC [Tivozanib] + CS(=O)(=O)N1CCN(Cc2cc3nc(-c4cccc5[nH]ncc45)nc(N4CCOCC4)c3s2)CC1 [Pictilisib] (partner 1 µM)
relative viability (IA-LM; first compound 0.005 µM): 0.308 | relative viability (IA-LM; first compound 0.01581 µM): 0.366 | relative viability (IA-LM; first compound 0.05 µM): 0.321 | relative viability (IA-LM; first compound 0.1581 µM): 0.316 | relative viability (IA-LM; first compound 0.5 µM): 0.574 | relative viability (ABC-1; first compound 0.005 µM): 0.775 | relative viability (ABC-1; first compound 0.01581 µM): 0.673 | relative viability (ABC-1; first compound 0.05 µM): 0.794 | relative viability (ABC-1; first compound 0.1581 µM): 0.646 | relative viability (ABC-1; first compound 0.5 µM): 0.326 | relative viability (NCI-H2126; first compound 0.005 µM): 0.41 | relative viability (NCI-H2126; first compound 0.01581 µM): 0.533 | relative viability (NCI-H2126; first compound 0.05 µM): 0.489 | relative viability (NCI-H2126; first compound 0.1581 µM): 0.36 | relative viability (NCI-H2126; first compound 0.5 µM): 0.469 | relative viability (NCI-H1299; first compound 0.005 µM): 0.687 | relative viability (NCI-H1299; first compound 0.01581 µM): 0.62 | relative viability (NCI-H1299; first compound 0.05 µM): 0.797 | relative viability (NCI-H1299; first compound 0.1581 µM): 0.789 | relative viability (NCI-H1299; first compound 0.5 µM): 0.615 | relative viability (NCI-H1703; first compound 0.005 µM): 0.161 | relative viability (NCI-H1703; first compound 0.01581 µM): 0.236 | relative viability (NCI-H1703; first compound 0.05 µM): 0.253 | relative viability (NCI-H1703; first compound 0.1581 µM): 0.181 | relative viability (NCI-H1703; first compound 0.5 µM): 0.213 | relative viability (EKVX; first compound 0.005 µM): 0.392 | relative viability (EKVX; first compound 0.01581 µM): 0.426 | relative viability (EKVX; first compound 0.05 µM): 0.535 | relative viability (EKVX; first compound 0.1581 µM): 0.394 | relative viability (EKVX; first compound 0.5 µM): 0.497 | relative viability (NCI-H2085; first compound 0.005 µM): 0.474 | relative viability (NCI-H2085; first compound 0.01581 µM): 0.456 | relative viability (NCI-H2085; first compound 0.05 µM): 0.536 | relative viability (NCI-H2085; first compound 0.1581 µM): 0.405 | relative viability (NCI-H2085; first compound 0.5 µM): 0.408 | relative viability (EBC-1; first compound 0.005 µM): 0.367 | relative viability (EBC-1; first compound 0.01581 µM): 0.362 | relative viability (EBC-1; first compound 0.05 µM): 0.378 | relative viability (EBC-1; first compound 0.1581 µM): 0.25 | relative viability (EBC-1; first compound 0.5 µM): 0.401 | relative viability (Calu-6; first compound 0.005 µM): 0.969 | relative viability (Calu-6; first compound 0.01581 µM): 0.979 | relative viability (Calu-6; first compound 0.05 µM): 0.842 | relative viability (Calu-6; first compound 0.1581 µM): 0.798 | relative viability (Calu-6; first compound 0.5 µM): 0.823 | relative viability (NCI-H1993; first compound 0.005 µM): 0.845 | relative viability (NCI-H1993; first compound 0.01581 µM): 0.782 | relative viability (NCI-H1993; first compound 0.05 µM): 0.875 | relative viability (NCI-H1993; first compound 0.1581 µM): 0.709 | relative viability (NCI-H1993; first compound 0.5 µM): 0.737 | relative viability (RERF-LC-KJ; first compound 0.005 µM): 0.509 | relative viability (RERF-LC-KJ; first compound 0.01581 µM): 0.471 | relative viability (RERF-LC-KJ; first compound 0.05 µM): 0.533 | relative viability (RERF-LC-KJ; first compound 0.1581 µM): 0.356 | relative viability (RERF-LC-KJ; first compound 0.5 µM): 0.586 | relative viability (HCC-44; first compound 0.005 µM): 0.617 | relative viability (HCC-44; first compound 0.01581 µM): 0.471 | relative viability (HCC-44; first compound 0.05 µM): 0.718 | relative viability (HCC-44; first compound 0.1581 µM): 0.488 | relative viability (HCC-44; first compound 0.5 µM): 0.654 | relative viability (A549; first compound 0.005 µM): 0.49 | relative viability (A549; first compound 0.01581 µM): 0.456 | relative viability (A549; first compound 0.05 µM): 0.65 | relative viability (A549; first compound 0.1581 µM): 0.451 | relative viability (A549; first compound 0.5 µM): 0.571

COc1cc2nccc(Oc3ccc(NC(=O)Nc4cc(C)on4)c(Cl)c3)c2cc1OC [Tivozanib] + C[C@@H](Oc1cc(-c2cnn(C3CCNCC3)c2)cnc1N)c1c(Cl)ccc(F)c1Cl [Crizotinib] (partner 1 µM)
relative viability (IA-LM; first compound 0.01581 µM): 0.716 | relative viability (IA-LM; first compound 0.05 µM): 1.04 | relative viability (IA-LM; first compound 0.1581 µM): 0.507 | relative viability (IA-LM; first compound 0.5 µM): 0.494 | relative viability (ABC-1; first compound 0.005 µM): 1.09 | relative viability (ABC-1; first compound 0.01581 µM): 1.12 | relative viability (ABC-1; first compound 0.05 µM): 1.09 | relative viability (ABC-1; first compound 0.1581 µM): 1.08 | relative viability (ABC-1; first compound 0.5 µM): 0.874 | relative viability (NCI-H2126; first compound 0.005 µM): 0.965 | relative viability (NCI-H2126; first compound 0.01581 µM): 0.946 | relative viability (NCI-H2126; first compound 0.05 µM): 1.03 | relative viability (NCI-H2126; first compound 0.1581 µM): 0.912 | relative viability (NCI-H2126; first compound 0.5 µM): 1.03 | relative viability (NCI-H1299; first compound 0.005 µM): 0.922 | relative viability (NCI-H1299; first compound 0.01581 µM): 0.971 | relative viability (NCI-H1299; first compound 0.05 µM): 0.968 | relative viability (NCI-H1299; first compound 0.1581 µM): 0.991 | relative viability (NCI-H1299; first compound 0.5 µM): 0.906 | relative viability (NCI-H1703; first compound 0.005 µM): 0.239 | relative viability (NCI-H1703; first compound 0.01581 µM): 0.194 | relative viability (NCI-H1703; first compound 0.05 µM): 0.163 | relative viability (NCI-H1703; first compound 0.1581 µM): 0.157 | relative viability (NCI-H1703; first compound 0.5 µM): 0.155 | relative viability (EKVX; first compound 0.005 µM): 0.995 | relative viability (EKVX; first compound 0.01581 µM): 1.02 | relative viability (EKVX; first compound 0.05 µM): 0.819 | relative viability (EKVX; first compound 0.1581 µM): 1.06 | relative viability (EKVX; first compound 0.5 µM): 1.22 | relative viability (NCI-H2085; first compound 0.005 µM): 0.699 | relative viability (NCI-H2085; first compound 0.01581 µM): 0.87 | relative viability (NCI-H2085; first compound 0.05 µM): 0.912 | relative viability (NCI-H2085; first compound 0.1581 µM): 0.802 | relative viability (NCI-H2085; first compound 0.5 µM): 0.814 | relative viability (EBC-1; first compound 0.005 µM): 0.182 | relative viability (EBC-1; first compound 0.01581 µM): 0.186 | relative viability (EBC-1; first compound 0.05 µM): 0.211 | relative viability (EBC-1; first compound 0.1581 µM): 0.207 | relative viability (EBC-1; first compound 0.5 µM): 0.192 | relative viability (Calu-6; first compound 0.005 µM): 0.778 | relative viability (Calu-6; first compound 0.01581 µM): 0.772 | relative viability (Calu-6; first compound 0.05 µM): 0.706 | relative viability (Calu-6; first compound 0.1581 µM): 0.839 | relative viability (Calu-6; first compound 0.5 µM): 0.711 | relative viability (NCI-H1993; first compound 0.005 µM): 0.764 | relative viability (NCI-H1993; first compound 0.01581 µM): 0.852 | relative viability (NCI-H1993; first compound 0.05 µM): 0.926 | relative viability (NCI-H1993; first compound 0.1581 µM): 0.707 | relative viability (NCI-H1993; first compound 0.5 µM): 0.852 | relative viability (RERF-LC-KJ; first compound 0.005 µM): 0.771 | relative viability (RERF-LC-KJ; first compound 0.01581 µM): 0.81 | relative viability (RERF-LC-KJ; first compound 0.05 µM): 0.863 | relative viability (RERF-LC-KJ; first compound 0.1581 µM): 0.85 | relative viability (RERF-LC-KJ; first compound 0.5 µM): 0.747 | relative viability (HCC-44; first compound 0.005 µM): 0.743 | relative viability (HCC-44; first compound 0.01581 µM): 0.787 | relative viability (HCC-44; first compound 0.05 µM): 0.82 | relative viability (HCC-44; first compound 0.1581 µM): 0.78 | relative viability (HCC-44; first compound 0.5 µM): 0.811 | relative viability (A549; first compound 0.005 µM): 0.765 | relative viability (A549; first compound 0.01581 µM): 0.793 | relative viability (A549; first compound 0.05 µM): 0.694 | relative viability (A549; first compound 0.1581 µM): 0.828 | relative viability (A549; first compound 0.5 µM): 0.652
